Results reported in patent US20260356817A1, “AMINOPYRIMIDINE AND AMINOTRIAZINE DERIVATIVES AS MYC PROTEIN MODULATORS” (Sanford Burnham Prebys Medical Discovery Institute, priority 2022, published 2026).
Read-outs that look alike come from different tables or passages of the source.

Test system: Myc
Experiment: Myc inhibition assay: Myc expression per cell by anti-Myc immunofluorescence, high-content imaging
Type: cell-based, human (patient-derived medulloblastoma xenograft cells)
Conditions: medulloblastoma PDX cells, 4 h
In short: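 IC50 comes from high-content imaging of per-cell Myc immunostaining (DAPI-labelled nuclei) after 4 h compound exposure. Cells were freshly dissociated medulloblastoma PDX tumours, never passaged in vitro, grown in NSG mouse cerebellum, plated serum-free and recovered overnight before treatment.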

[1] = Table 1, read-out: IC50 (Myc inhibition)
[2] = Table 2, read-out: MYC Inhibition IC50

SMILES | IC50 [1] | IC50 [2]
Cc1ccc(Nc2nccc(-c3ccc4[nH]cnc4c3)n2)cc1 [Compound 103, 4-(1H-benzo[d]imidazol-5-yl)-N-(p-tolyl)pyrimidin-2-amine] | 200 to 1000 nM | 200 to 1000 nM
O=C(NC1CC1)c1cccc(Nc2nccc(-c3ccc4[nH]cnc4c3)n2)c1 [Compound 9, 3-((4-(1H-benzo[d]imidazol-5-yl)pyrimidin-2-yl)amino)-N-cyclopropylbenzamide] | 200 to 1000 nM | 200 to 1000 nM
c1cc(-c2ccc3[nH]cnc3c2)nc(NC2CCCC2)n1 [Compound 88, 4-(1H-benzo[d]imidazol-5-yl)-N-cyclopentylpyrimidin-2-amine] | 1000 to 10000 nM | 1000 to 10000 nM
COc1cc(-c2ccnc(Nc3cncc(F)c3)n2)ccn1 [Compound 146, N-(5-fluoropyridin-3-yl)-4-(2-methoxypyridin-4-yl)pyrimidin-2-amine] | 1000 to 10000 nM | 1000 to 10000 nM
Oc1ccnc(-c2ccnc(Nc3ccccc3)n2)c1 [Compound 183, 2-(2-(phenylamino)pyrimidin-4-yl)pyridin-4-ol] | 1000 to 10000 nM | 1000 to 10000 nM
CC(C)c1cccc(Nc2nccc(-c3cnc4nc[nH]c4c3)n2)c1 [Compound 134, 4-(1H-imidazo[4,5-b]pyridin-6-yl)-N-(3-isopropylphenyl)pyrimidin-2-amine] | < 200 nM | < 200 nM
COc1cc(-c2ccnc(Nc3cccnc3)n2)ccn1 [Compound 189, 4-(2-methoxypyridin-4-yl)-N-(pyridin-3-yl)pyrimidin-2-amine] | 1000 to 10000 nM | 1000 to 10000 nM
NC(=O)c1cccc(Nc2nccc(-c3ccc4[nH]cnc4c3)n2)c1 [Compound 67, 3-((4-(1H-benzo[d]imidazol-5-yl)pyrimidin-2-yl)amino)benzamide] | 200 to 1000 nM | 200 to 1000 nM
c1cc(Nc2nccc(-c3ccc4[nH]cnc4c3)n2)cc(N2CCNCC2)c1 [Compound 92, 4-(1H-benzo[d]imidazol-5-yl)-N-(3-(piperazin-1-yl)phenyl)pyrimidin-2-amine] | 1000 to 10000 nM | 1000 to 10000 nM
Fc1cccc(Nc2nccc(-c3ccc4[nH]ccc4c3)n2)c1 [Compound 153, N-(3-fluorophenyl)-4-(1H-indol-5-yl)pyrimidin-2-amine] | 1000 to 10000 nM | 1000 to 10000 nM
CC(C)c1nnc(Nc2nccc(-c3ccc4[nH]cnc4c3)n2)[nH]1 [Compound 54, 4-(1H-benzo[d]imidazol-5-yl)-N-(5-isopropyl-4H-1,2,4-triazol-3-yl)pyrimidin-2-amine] | 1000 to 10000 nM | 1000 to 10000 nM
COc1cccc(Nc2nccc(-c3ccnc(OC)c3)n2)c1 [Compound 192, N-(3-methoxyphenyl)-4-(2-methoxypyridin-4-yl)pyrimidin-2-amine] | 1000 to 10000 nM | 1000 to 10000 nM
CC(C)S(=O)(=O)c1cccc(Nc2nccc(-c3ccc4[nH]cnc4c3)n2)c1 [Compound 26, 4-(1H-benzo[d]imidazol-5-yl)-N-(3-(isopropylsulfonyl)phenyl)pyrimidin-2-amine] | < 200 nM | < 200 nM
FC(F)(F)c1cccc(Nc2nccc(-c3cn4ccnc4cn3)n2)c1 [Compound 107, 4-(Imidazo[1,2-a]pyrazin-6-yl)-N-(3-(trifluoromethyl)phenyl)pyrimidin-2-amine] | 1000 to 10000 nM | 1000 to 10000 nM
c1cc(Nc2nccc(-c3ccc4[nH]cnc4c3)n2)cc(-n2cccn2)c1 [Compound 8, N-(3-(1H-pyrazol-1-yl)phenyl)-4-(1H-benzo[d]imidazol-5-yl)pyrimidin-2-amine] | < 200 nM | < 200 nM
COc1cc(-c2ccnc(Nc3cccc(F)c3F)n2)ccn1 [Compound 206, N-(2,3-difluorophenyl)-4-(2-methoxypyridin-4-yl)pyrimidin-2-amine] | 10000 to 100000 nM | 10000 to 100000 nM
Cc1ccc(C)n1-c1cccc(Nc2nccc(-c3ccc4[nH]cnc4c3)n2)c1 [Compound 4, 4-(1H-benzo[d]imidazol-5-yl)-N-(3-(2,5-dimethyl-1H-pyrrol-1-yl)phenyl)pyrimidin-2-amine] | 1000 to 10000 nM | 1000 to 10000 nM
CCc1cccc(Nc2nccc(-c3cnc4nc[nH]c4c3)n2)c1 [Compound 140, N-(3-ethylphenyl)-4-(1H-imidazo[4,5-b]pyridin-6-yl)pyrimidin-2-amine] | < 200 nM | < 200 nM
Oc1cc(-c2ccnc(Nc3ccnc(C(F)(F)F)c3)n2)ccn1 [Compound 156, 4-(2-((2-(trifluoromethyl)pyridin-4-yl)amino)pyrimidin-4-yl)pyridin-2-ol] | 10000 to 100000 nM | 10000 to 100000 nM
Clc1cccc(Nc2nccc(-c3cnc4nc[nH]c4c3)n2)c1 [Compound 141, N-(3-chlorophenyl)-4-(1H-imidazo[4,5-b]pyridin-6-yl)pyrimidin-2-amine] | < 200 nM | < 200 nM
FC(F)(F)c1cccc(Nc2nccc(-c3cnc4cc[nH]c4c3)n2)c1 [Compound 132, 4-(1H-pyrrolo[3,2-b]pyridin-6-yl)-N-(3-(trifluoromethyl)phenyl)pyrimidin-2-amine] | 200 to 1000 nM | 200 to 1000 nM

SMILES | IC50 [1] | IC50 [2]
c1cc(-c2ccc3[nH]cnc3c2)nc(Nc2ccc3c(c2)CCC3)n1 [Compound 97, 4-(1H-benzo[d]imidazol-5-yl)-N-(2,3-dihydro-1H-inden-5-yl)pyrimidin-2-amine] | 1000 to 10000 nM | 1000 to 10000 nM
Fc1ccccc1Nc1nccc(-c2ccc3[nH]cnc3c2)n1 [Compound 66, 4-(1H-benzo[d]imidazol-5-yl)-N-(2-fluorophenyl)pyrimidin-2-amine] | 1000 to 10000 nM | 1000 to 10000 nM
FC(F)(F)c1cccc(Nc2nccc(-c3ccc4cc[nH]c4c3)n2)c1 [Compound 172, 4-(1H-indol-6-yl)-N-(3-(trifluoromethyl)phenyl)pyrimidin-2-amine] | 1000 to 10000 nM | 1000 to 10000 nM
Oc1ccc(-c2ccnc(Nc3cccc(C(F)(F)F)c3)n2)cc1 [Compound 130, 4-(2-((3-(Trifluoromethyl)phenyl)amino)pyrimidin-4-yl)phenol] | 200 to 1000 nM | 200 to 1000 nM
Oc1cccc(-c2ccnc(Nc3ccccc3)n2)c1 [Compound 244, 3-(2-(phenylamino)pyrimidin-4-yl)phenol] | 1000 to 10000 nM | 1000 to 10000 nM
Oc1cc(-c2ccnc(Sc3ccccc3)n2)ccn1 [Compound 231, 4-(2-(phenylthio)pyrimidin-4-yl)pyridin-2-ol] | 10000 to 100000 nM | 10000 to 100000 nM
CC(C)n1cc(Nc2nccc(-c3ccc4[nH]cnc4c3)n2)cn1 [Compound 21, 4-(1H-benzo[d]imidazol-5-yl)-N-(1-isopropyl-1H-pyrazol-4-yl)pyrimidin-2-amine] | 200 to 1000 nM | 200 to 1000 nM
COc1cc(-c2ccnc(Nc3cccc(C(N)=O)c3)n2)ccn1 [Compound 198, 3-((4-(2-methoxypyridin-4-yl)pyrimidin-2-yl)amino)benzamide] | 1000 to 10000 nM | 1000 to 10000 nM
COc1cc(-c2ccnc(Nc3ccccc3)n2)ncn1 [Compound 162, 6′-methoxy-N-phenyl-[4,4′-bipyrimidin]-2-amine] | 10000 to 100000 nM | 10000 to 100000 nM
O=C(c1cccc(Nc2nccc(-c3ccc4[nH]cnc4c3)n2)c1)N1CCOCC1 [Compound 11, (3-((4-(1H-benzo[d]imidazol-5-yl)pyrimidin-2-yl)amino)phenyl)(morpholino)methanone] | 200 to 1000 nM | 200 to 1000 nM
Cn1nccc1CNc1nccc(-c2ccc3[nH]cnc3c2)n1 [Compound 82, 4-(1H-benzo[d]imidazol-5-yl)-N-((1-methyl-1H-pyrazol-5-yl)methyl)pyrimidin-2-amine] | 1000 to 10000 nM | 1000 to 10000 nM
c1cc(Nc2nccc(-c3ccc4[nH]cnc4c3)n2)cc(N2CCCCC2)c1 [Compound 65, 4-(1H-benzo[d]imidazol-5-yl)-N-(3-(piperidin-1-yl)phenyl)pyrimidin-2-amine] | 200 to 1000 nM | 200 to 1000 nM
Oc1cc(-c2ccnc(Nc3ccccc3)n2)ccn1 [Compound 251, 4-(2-(phenylamino)pyrimidin-4-yl)pyridin-2-ol] | 1000 to 10000 nM | 1000 to 10000 nM
Brc1cccc(Nc2nccc(-c3ccc4[nH]cnc4c3)n2)c1 [Compound 31, 4-(1H-benzo[d]imidazol-5-yl)-N-(3-bromophenyl)pyrimidin-2-amine] | < 200 nM | < 200 nM
Cc1cc2nc[nH]c2cc1-c1ccnc(Nc2cccc(C(F)(F)F)c2)n1 [Compound 114, 4-(5-methyl-1H-benzo[d]imidazol-6-yl)-N-(3-(trifluoromethyl)phenyl)pyrimidin-2-amine] | 1000 to 10000 nM | 1000 to 10000 nM
CC(C)(C)c1ccccc1Nc1nccc(-c2ccc3[nH]cnc3c2)n1 [Compound 53, 4-(1H-benzo[d]imidazol-5-yl)-N-(2-(tert-butyl)phenyl)pyrimidin-2-amine] | 1000 to 10000 nM | 1000 to 10000 nM
COc1ccnc(-c2ccnc(Nc3ccccc3)n2)c1 [Compound 217, 4-(4-methoxypyridin-2-yl)-N-phenylpyrimidin-2-amine] | 10000 to 100000 nM | 10000 to 100000 nM
Oc1ccc(-c2ccnc(Nc3ccccc3)n2)cn1 [Compound 238, 5-(2-(phenylamino)pyrimidin-4-yl)pyridin-2-ol] | 1000 to 10000 nM | 1000 to 10000 nM
COc1cc(-c2ccnc(Nc3ccccc3)n2)ccn1 [Compound 252, 4-(2-methoxypyridin-4-yl)-N-phenylpyrimidin-2-amine] | 10000 to 100000 nM | 10000 to 100000 nM
COc1ccc(-c2ccnc(Nc3cccc(F)c3)n2)s1 [Compound 176, N-(3-fluorophenyl)-4-(5-methoxythiophen-2-yl)pyrimidin-2-amine] | 1000 to 10000 nM | 1000 to 10000 nM
COc1ccc(-c2ccnc(N(C)c3ccccc3)n2)cn1 [Compound 223, 4-(6-methoxypyridin-3-yl)-N-methyl-N-phenylpyrimidin-2-amine] | 10000 to 100000 nM | 10000 to 100000 nM
